How the values were obtained:
Type in all cases: cell-based
[1] = system: p21 expression in breast cancer MCF7 cells; test: p21 expression by western blot, MCF7 cells; conditions: 5 mM HMBA or 50 μM 4a1, 18 hours
Description: FIGS. 7(A-B) illustrate Western blots showing (A) MCF7 (control siRNA or HEXIM1 siRNA) and (B) LNCaP (control shRNA or HEXIM1 shRNA) cells treated with vehicle (DMSO), 5 mM HMBA, or 50 μM 4a1 for 18 hours.
(§1) Cell lysates were analyzed by western blot as previously described. Anti-HEXIM1 was generated in the Montano laboratory. Primary antibodies against p21 (C-19; cat# sc-397), cyclin D1 (HD11; cat# sc-246) and myc (9E10; cat# sc-40) were obtained from Santa Cruz Biotechnology. Anti-GAPDH was obtained from Millipore. Anti-HIF-1α was obtained from Oxy-cell, Bioresearch).
HMBA was investigated in a Phase II clinical trial due to its potent anti-cancer and cell differentiation activities. Moreover, the roles of HMBA, and potentially 4a1, as differentiating factors are advantageous for their therapeutic use when compared to cytotoxic agents. […] We also examined the ability of 4a1 to induce differentiation and the relative role of HEXIM1.

[2] = system: HEXIM1 expression in breast cancer MCF7 cells; test: HEXIM1 protein expression in MCF7 cells; conditions: 18 h
Description: (§2) FIGS. 5(A-C) illustrate (A) the structure of HMBA analog, 4a1, (B) a graph showing HEXIM1 protein expression of breast cancer MCF7 cells treated with vehicle, HMBA, or 4a1 for 18 h, and (C) Western blot analyses of HEXIM1 targets relative to the loading control (GAPDH) of the treated cells.
(§3) MCF7, MDA-MB-231, and LNCaP cells were obtained from the American Tissue Culture Collection, and were maintained as previously described. Construction of expression vectors for control miRNA or HEXIM1 miRNAs were described previously. MCF7 or LNCaP cells were transfected with expression vectors containing either the HEXIM1 miRNA insert or a control miRNA insert as previously described. Following blasticidin selection, cells expressing the highest level of GFP were flow-sorted and expanded. MDA-MB-231 cells were transfected with control or expression vector for Flag-tagged HEXIM1 as previously described. The tamoxifen resistant cells line (TOTR) was generated by serial passage of parental MCF7 cells in growth media supplemented with 1 uM trans-hydroxytamoxifen.
as §1, with “Anti-HIF-1α was obtained from Oxy-cell, Bioresearch).” left out

[3] = system: HEXIM1 targets in MCF7 cells; test: Western blot of HEXIM1 targets in MCF7 cells; conditions: 5 mM HMBA or 50 uM 4a1, 18 h, relative to GAPDH
Description: FIG. 10 illustrates a Western blot of MCF7 cells treated with vehicle, 5 mM HMBA, or 50 uM 4a1 for 18 h, and processes for analyses of HEXIM1 targets relative to GAPDH.
as §1
To assess the clinical potential of HMBA and 4a1 we need to determine to what extent the targets of HMBA and 4a1 overlap with that of HEXIM1. We focused on direct targets of HEXIM1 that we have identified.

[4] = system: MCF7 cells; test: Nile red staining of lipid droplets (differentiation marker), MCF7 cells; conditions: 72 hours
Description: (§4) FIGS. 8(A-B) illustrate images showing (A) MCF7 cells transfected with control or HEXIM1 siRNA or (B) MDA-MB-231 transfected with control or HEXIM1 expression vector treated with vehicle (DMSO), HMBA, or 4a1 for 72 hours. Lower panels show Western blot analyses of HEXIM1 expression in MDA-MB-231 cells transfected with control or expression vector for Flag-tagged HEXIM1.
(§5) Cells were stained with Nile red for lipid droplets (marker of cell differentiation). Briefly, the stock solution of Nile red 1 mg/ml in acetone was diluted in PBS (1:1000). The fixed cells (4% paraformaldehyde) were incubated with diluted Nile red for 5 minutes at room temperature, rinsed with PBS and observed for the presence of lipid droplets by confocal microscopy. Images were digitally captured using a Leica microscope (Leica Microsystems Inc, IL, USA).

[5] = system: triple negative MDA-MB-231 breast cancer cells; test: Nile red staining of lipid droplets (differentiation marker), MDA-MB-231 cells; conditions: 72 hours
Description: as §4, §5

[6] = system: recruitment of CDK9 to HEXIM1 gene in MCF7 cells; test: ChIP assay, CDK9 recruitment to HEXIM1 gene, MCF7 cells; conditions: 5 mM HMBA or 50 μM 4a1, 90 minutes
Description: FIGS. 6(A-B) illustrate graphs showing HEXIM1 graphs showing HMBA and 4a1 induced recruitment of CDK9 to HEXIM1 promoter in MCF7 and LNCaP cells treated with 5 mM HMBA or 50 μM 4a1 for 90 minutes.
ChIP assays were carried out as previously described. Anti-CDK9 antibody (D-7; cat# sc-13130) was obtained from Santa Cruz Biotechnology.
The induction of HEXIM1 by HMBA appears to involve the release of free P-TEFb from 7SK snRNP, and recruitment of P-TEFb to HEXIM1 gene. P-TEFb is a heterodimer between the cyclin-dependent kinase 9 (Cdk9) and its regulatory subunit Cyclin T1 (CycT1). We thus determined the regulation of the recruitment of CDK9 to the HEXIM1 coding sequence by HMBA and 4a1.

[7] = system: HEXIM1 expression in breast cancer MDA-MB-231 cells; test: HEXIM1 expression in MDA-MB-231 cells
Description: as §2, §3
as §1, with “Anti-HIF-1α was obtained from Oxy-cell, Bioresearch).” left out

[8] = system: tamoxifen resistant breast cancer line (MCF7/TOTR); test: MTT proliferation assay, sensitivity to trans-hydroxytamoxifen; conditions: 7 days, 5 mM HMBA or 50 μM 4a1
Description: FIGS. 9(A-B) illustrate a Western blot and plots showing HEXIM1 expression in MCF7 and MCF7(TOTR) cells in the presence of vehicle (DMSO), 5 mM HMBA or 50 μM 4a1.
MCF7, MDA-MB-231, and LNCaP cells were obtained from the American Tissue Culture Collection, and were maintained as previously described. Construction of expression vectors for control miRNA or HEXIM1 miRNAs were described previously. MCF7 or LNCaP cells were transfected with expression vectors containing either the HEXIM1 miRNA insert or a control miRNA insert as previously described. Following blasticidin selection, cells expressing the highest level of GFP were flow-sorted and expanded. […]
MCF7 cells were plated onto 96 well plates and treated with 17β-estradiol±trans-hydroxytamoxifen in the presence of DMSO (vehicle), HMBA or 4a1 for 7 days. Cell proliferation was assessed using the MTT based Cell Growth Determination Kit from Sigma-Aldrich according to the manufacturer's protocol.
We have reported that HEXIM1 is required for the ability of antiestrogens to inhibit the activity of the Estrogen Receptor, that loss of HEXIM1 results in agonistic activity of tamoxifen, and that recurrence after tamoxifen therapy can be correlated with loss of HEXIM1 expression in human breast tissue samples. Thus we determined if HMBA and 4a1 can enhance sensitivity to tamoxifen of a tamoxifen resistant breast cancer line (MCF7/TOTR). […]

With COc1ccc(CC(=O)NCCCCCCNC(C)=O)cc1 [Compound 4a1] the p21 expression [1] was “induced p21 expression”, the “Potency of HEXIM1 induction compared to HMBA” value [2] was “increased potency” and the “Expression of proteins directly regulated by HEXIM1” value [3] was “regulated expression of proteins”. The “Cell differentiation (lipid droplets, Nile red)” value [4] was “induced differentiation”, the “Cell differentiation (lipid droplets, Nile red)” value [5] was “induced differentiation” and the “Recruitment of CDK9 to HEXIM1 gene” value [6] was “induce recruitment of CDK9”. For the same compound, the “Potency of HEXIM1 induction compared to HMBA” value [7] was “increased potency” and the “Sensitivity of TOTR cells to trans-hydroxytamoxifen” value [8] was “enhanced the sensitivity”.

Source: patent US10959966B2, “Compositions and methods for modulating HEXM1 expression” (CASE WESTERN RESERVE UNIVERSITY, priority 2014, dated 2021)
